How the values were obtained:
[1] = test system: U937 cells; assay: Inhibition rate of compound (1 μM) on necroptosis of U937 cells (TSZ-induced, CellTiter-Glo); assay type: cell-based; conditions: TSZ (hTNF-α, SM-164, Z-VAD-FMK) 20 hours
How it was run: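 Percent inhibition comes from ATP luminescence (CellTiter-Glo), referenced to wells without TSZ and wells with TSZ alone. The compound was added to U937 cells 15 min ahead of a TNF-α/SM-164/Z-VAD-FMK mix, followed by 20 h culture at 37° C, 5% CO2.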

[2] = molecular target: T1, RIPK1 kinase (Homo sapiens, UniProt Q13546); assay: In vitro RIPK1 kinase activity assay (ADP-Glo), inhibition by compounds at 1 μM; assay type: biochemical; conditions: compound 1 μM; ATP 10 μM; MBP substrate 100 μg/mL; read-out: RIPK1 kinase activity inhibition rate range
T1 construct: purchased Promega VA7593
T1 sequence (Q13546 1-671): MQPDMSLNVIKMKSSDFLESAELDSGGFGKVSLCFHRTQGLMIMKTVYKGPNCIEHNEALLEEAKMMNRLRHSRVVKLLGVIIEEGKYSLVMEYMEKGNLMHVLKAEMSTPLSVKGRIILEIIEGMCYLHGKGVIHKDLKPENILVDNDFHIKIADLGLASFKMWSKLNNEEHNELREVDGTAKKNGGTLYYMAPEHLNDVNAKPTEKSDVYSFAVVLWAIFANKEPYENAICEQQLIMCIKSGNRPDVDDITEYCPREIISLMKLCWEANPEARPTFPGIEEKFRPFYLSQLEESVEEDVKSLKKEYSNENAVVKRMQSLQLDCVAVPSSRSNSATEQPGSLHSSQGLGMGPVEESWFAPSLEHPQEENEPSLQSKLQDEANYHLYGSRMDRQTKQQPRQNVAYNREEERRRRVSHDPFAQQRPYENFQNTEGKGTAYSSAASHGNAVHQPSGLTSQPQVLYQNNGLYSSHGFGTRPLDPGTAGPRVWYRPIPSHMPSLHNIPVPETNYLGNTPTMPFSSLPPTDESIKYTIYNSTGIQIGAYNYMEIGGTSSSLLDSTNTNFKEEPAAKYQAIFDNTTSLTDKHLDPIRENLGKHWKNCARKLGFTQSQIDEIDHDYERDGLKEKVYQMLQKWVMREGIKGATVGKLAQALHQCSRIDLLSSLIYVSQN
How it was run: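 Read by ADP-Glo chemiluminescence as percent inhibition: RIPK1 kinase, 15-min room-temperature compound preincubation, then 1-h reaction with MBP (100 μg/mL final) and ATP (10 μM final). Enzyme level was set by titration.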

inhibition at 1 µM [2]	SMILES	Inhibition rate range of compounds (1 μM) on U937 cell necroptosis [1]
50 to 74%	CC(Cc1ccccc1)NC(=O)C(=O)N[C@H]1COc2ccc(C#CCCO)cc2N(C)C1=O (mixture of isomers) [Example 37, N^1-((S)-7-(4-hydroxybut-1-yn-1-yl)-5-methyl-4-oxo-2,3,4,5-tetrahydrobenzo[b][1,4]oxazepin-3-yl)-N^2-(1-phenylpropan-2-yl)oxalamide]	A (A: ≥90%)
≥ 75%	CC(NC(=O)C(=O)N[C@H]1COc2ccc(C#CCCO)cc2N(C)C1=O)c1ccccc1 (mixture of isomers) [Example 41, N^1-((S)-7-(4-hydroxybut-1-yn-1-yl)-5-methyl-4-oxo-2,3,4,5-tetrahydrobenzo[b][1,4]oxazepin-3-yl)-N^2-(1-phenylethyl)oxalamide]	A (A: ≥90%)
≥ 75%	CN1CCC(CC#Cc2ccc3c(c2)N(C)C(=O)[C@@H](NC(=O)C(=O)NCCc2ccccc2)CO3)C1=O (mixture of isomers) [Example 82, N^1-((3S)-5-methyl-7-(3-(1-methyl-2-oxopyrrolidin-3-yl)prop-1-yn-1-yl)-4-oxo-2,3,4,5-tetrahydrobenzo[b][1,4]oxazepin-3-yl)-N^2-phenethyloxalamide]	A (A: ≥90%)
≥ 75%	CN1C(=O)[C@@H](NC(=O)C(=O)NCCc2cccc(F)c2)COc2ccc(C#CCN3CCC(O)C3)cc21 (mixture of isomers) [Example 113, N^1-(3-fluorophenethyl)-N^2-((3S)-7-(3-(3-hydroxypyrrolidin-1-yl)prop-1-yn-1-yl)-5-methyl-4-oxo-2,3,4,5-tetrahydrobenzo[b][1,4]oxazepin-3-yl)oxalamide]	A (A: ≥90%)
≥ 75%	C[C@@H](NC(=O)C(=O)N[C@H]1COc2ccc(C#CCN3CCC(O)C3)cc2N(C)C1=O)c1ccccc1 (mixture of isomers) [Example 126, N^1-((3S)-7-(3-(3-hydroxypyrrolidin-1-yl)prop-1-yn-1-yl)-5-methyl-4-oxo-2,3,4,5-tetrahydrobenzo[b][1,4]oxazepin-3-yl)-N^2-((R)-1-phenylethyl)oxalamide]	A (A: ≥90%)
≥ 75%	CC(CNC(=O)C(=O)N[C@H]1COc2ccc(C#CCCO)cc2N(C)C1=O)c1ccccc1 (mixture of isomers) [Example 154, N^1-((S)-7-(4-hydroxybut-1-yn-1-yl)-5-methyl-4-oxo-2,3,4,5-tetrahydrobenzo[b][1,4]oxazepin-3-yl)-N^2-(2-phenylpropyl)oxalamide]	A (A: ≥90%)
≥ 75%	CN1C(=O)[C@@H](NC(=O)C(=O)NCCc2ccccc2)COc2ccc(C#Cc3cccnc3)cc21 [Example 13, (S)—N^1-(5-methyl-4-oxo-7-(pyridin-3-ylethynyl)-2,3,4,5-tetrahydrobenzo[b][1,4]oxazepin-3-yl)-N^2-phenethyloxalamide]	A (A: ≥90%)
≥ 75%	CN1C(=O)[C@@H](NC(=O)C(=O)NCCc2ccccc2)COc2ccc(C#Cc3ccsc3)cc21 [Example 17, (S)—N^1-(5-methyl-4-oxo-7-(thiophen-3-ylethynyl)-2,3,4,5-tetrahydrobenzo[b][1,4]oxazepin-3-yl)-N^2-phenethyloxalamide]	A (A: ≥90%)
≥ 75%	CN1C(=O)[C@@H](NC(=O)C(=O)NCCc2ccccc2)COc2ccc(C#C[Si](C)(C)C)cc21 [Example 18, (S)—N^1-(5-methyl-4-oxo-7-((trimethylsilyl)ethynyl)-2,3,4,5-tetrahydrobenzo[b][1,4]oxazepin-3-yl)-N^2-phenethyloxalamide]	A (A: ≥90%)
≥ 75%	CC#Cc1ccc2c(c1)N(C)C(=O)[C@@H](NC(=O)C(=O)NCCc1ccccc1)CO2 [Example 19, (S)—N^1-(5-methyl-4-oxo-7-(prop-1-yn-1-yl)-2,3,4,5-tetrahydrobenzo[b][1,4]oxazepin-3-yl)-N^2-phenethyloxalamide]	A (A: ≥90%)
≥ 75%	CN1C(=O)[C@@H](NC(=O)C(=O)NCCc2ccccc2)COc2ccc(C#CC3CCOCC3)cc21 [Example 21, (S)—N^1-(5-methyl-4-oxo-7-((tetrahydro-2H-pyran-4-yl)ethynyl)-2,3,4,5-tetrahydrobenzo[b][1,4]oxazepin-3-yl)-N^2-phenethyloxalamide]	A (A: ≥90%)
≥ 75%	CN1C(=O)[C@@H](NC(=O)C(=O)NCCc2ccccc2)COc2ccc(C#Cc3cnn(C)c3)cc21 [Example 22, (S)—N^1-(5-methyl-7-((1-methyl-1H-pyrazol-4-yl)ethynyl)-4-oxo-2,3,4,5-tetrahydrobenzo[b][1,4]oxazepin-3-yl)-N^2-phenethyloxalamide]	B (B: 50-89%)
50 to 74%	CN1C(=O)[C@@H](NC(=O)C(=O)NCCc2ccccc2)COc2ccc(C#CC3CCCNC3)cc21 (stereo partly drawn) [Example 24, N^1-((3S)-5-methyl-4-oxo-7-(piperidin-3-ylethynyl)-2,3,4,5-tetrahydrobenzo[b][1,4]oxazepin-3-yl)-N^2-phenethyloxalamide]	A (A: ≥90%)
≥ 75%	CN1C(=O)[C@@H](NC(=O)C(=O)NCCc2ccccc2)COc2ccc(C#Cc3cnc4cccnn34)cc21 [Example 25, (S)—N^1-(7-(imidazo[1,2-b]pyridazin-3-ylethynyl)-5-methyl-4-oxo-2,3,4,5-tetrahydrobenzo[b][1,4]oxazepin-3-yl)-N^2-phenethyloxalamide]	A (A: ≥90%)
≥ 75%	CN1C(=O)[C@@H](NC(=O)C(=O)NCCc2ccccc2)COc2ccc(C#CC(C)(C)O)cc21 [Example 29, (S)—N^1-(7-(3-hydroxy-3-methylbut-1-yn-1-yl)-5-methyl-4-oxo-2,3,4,5-tetrahydrobenzo[b][1,4]oxazepin-3-yl)-N^2-phenethyloxalamide]	A (A: ≥90%)
≥ 75%	CN1C(=O)[C@@H](NC(=O)C(=O)NCCc2ccccc2)COc2ccc(C#CCCO)cc21 [Example 31, (S)—N^1-(7-(4-hydroxybut-1-yn-1-yl)-5-methyl-4-oxo-2,3,4,5-tetrahydrobenzo[b][1,4]oxazepin-3-yl)-N^2-phenethyloxalamide]	A (A: ≥90%)
≥ 75%	CN1C(=O)[C@@H](NC(=O)C(=O)NCc2ccccc2)COc2ccc(C#CCCO)cc21 [Example 32, (S)—N^1-benzyl-N^2-(7-(4-hydroxybut-1-yn-1-yl)-5-methyl-4-oxo-2,3,4,5-tetrahydrobenzo[b][1,4]oxazepin-3-yl)oxalamide]	A (A: ≥90%)
≥ 75%	CN1C(=O)[C@@H](NC(=O)C(=O)NCCc2ccccc2F)COc2ccc(C#CCCO)cc21 [Example 33, (S)—N^1-(2-fluorophenethyl)-N^2-(7-(4-hydroxybut-1-yn-1-yl)-5-methyl-4-oxo-2,3,4,5-tetrahydrobenzo[b][1,4]oxazepin-3-yl)oxalamide]	A (A: ≥90%)
50 to 74%	CN1C(=O)[C@@H](NC(=O)C(=O)NCCc2cccc(F)c2)COc2ccc(C#CCCO)cc21 [Example 34, (S)—N^1-(3-fluorophenethyl)-N^2-(7-(4-hydroxybut-1-yn-1-yl)-5-methyl-4-oxo-2,3,4,5-tetrahydrobenzo[b][1,4]oxazepin-3-yl)oxalamide]	A (A: ≥90%)
50 to 74%	CN1C(=O)[C@@H](NC(=O)C(=O)NCCc2ccc(F)cc2)COc2ccc(C#CCCO)cc21 [Example 35, (S)—N^1-(4-fluorophenethyl)-N^2-(7-(4-hydroxybut-1-yn-1-yl)-5-methyl-4-oxo-2,3,4,5-tetrahydrobenzo[b][1,4]oxazepin-3-yl)oxalamide]	A (A: ≥90%)
≥ 75%	CN1C(=O)[C@@H](NC(=O)C(=O)NCCc2cc(F)cc(F)c2)COc2ccc(C#CCCO)cc21 [Example 36, (S)—N^1-(3,5-difluorophenethyl)-N^2-(7-(4-hydroxybut-1-yn-1-yl)-5-methyl-4-oxo-2,3,4,5-tetrahydrobenzo[b][1,4]oxazepin-3-yl)oxalamide]	A (A: ≥90%)
